Laboratory results as given in patent EP4755888A1 (ILAb Co., Ltd., priority 2023, dated 2025).
pIC50: −log10 of the molar value.

The compounds below were run against PD-1/PD-L1 (Homo sapiens, UniProt Q9NZQ7) (assay: TR-FRET PD-1/PD-L1 binding inhibition at the molecular level (free proteins)). Settings: Tag1-PD-L1 and Tag2-PD-1 proteins, twelve concentrations from 200 nM, 2 hours at room temperature, read-out: FRET assay (IC50).
Chain of PD-1/PD-L1 (Q9NZQ7 19-238 limits assumed): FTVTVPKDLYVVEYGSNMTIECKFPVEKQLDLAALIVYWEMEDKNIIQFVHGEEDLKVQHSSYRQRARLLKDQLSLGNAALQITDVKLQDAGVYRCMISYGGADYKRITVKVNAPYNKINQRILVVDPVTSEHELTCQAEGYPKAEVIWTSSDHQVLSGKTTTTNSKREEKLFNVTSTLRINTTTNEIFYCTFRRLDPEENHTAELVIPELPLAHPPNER
How it was run: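 HTRF read-out at 665/620 nm after 2 h at room temperature. Detection used anti-Tag1 Eu cryptate plus anti-Tag2 XL665 antibodies. Tagged PD-L1 and PD-1 proteins were pre-mixed with compound across twelve […] 1:2 dilutions starting at 200 nM.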
For `O=C(Nc1cccc(-c2cccc(Nc3nccc4nccnc34)c2Cl)c1Cl)c1cc2n(n1)CCC[C@H]2N1CCC(C(=O)O)CC1` [Compound 256, (R)-1-(2-((2,2'-dichloro-3'-(pyrido[3,4-b]pyrazin-5-ylamino)-[1,1'-biphenyl]-3-yl)carbamoyl)-4,5,6,7-tetrahydropyrazolo[1,5-a]pyridin-4-yl)piperidine-4-carboxylic acid], the pIC50 was 7.00 to 8.00. `O=C(Nc1cccc(-c2cccc(Nc3nccc4nccnc34)c2Cl)c1Cl)c1cc2n(n1)CCC[C@@H]2N1CCC(C(=O)O)CC1` [Compound 257, (S)-1-(2-((2,2'-dichloro-3'-(pyrido[3,4-b]pyrazin-5-ylamino)-[1,1'-biphenyl]-3-yl)carbamoyl)-4,5,6,7-tetrahydropyrazolo[1,5-a]pyridin-4-yl)piperidine-4-carboxylic acid] showed a pIC50 of 7.00 to 8.00. Work on `CC(C)(N[C@H]1CCCn2nc(C(=O)Nc3cccc(-c4cccc(Nc5nc(C(F)F)nc6cc(CN7CC[C@@H](O)C7)cnc56)c4Cl)c3Cl)cc21)C(=O)O` [Compound 258, 2-(((S)-2-((2,2'-dichloro-3'-((2-(difluoromethyl)-7-(((R)-3-hydroxypyrrolidin-1-yl)methyl)pyrido[3,2-d]pyrimidin-4-yl)amino)-[1,1'-biphenyl]-3-yl)carbamoyl)-4,5,6,7-tetrahydropyrazolo[1,5-a]pyridin-4-yl)amino)-2-methylpropanoic acid] yielded a pIC50 of 7.00 to 8.00. `CC(C)(N[C@@H]1CCCn2nc(C(=O)Nc3cccc(-c4cccc(Nc5nc(C(F)F)nc6cc(CN7CC[C@@H](O)C7)cnc56)c4Cl)c3Cl)cc21)C(=O)O` [Compound 259, 2-(((R)-2-((2,2'-dichloro-3'-((2-(difluoromethyl)-7-(((R)-3-hydroxypyrrolidin-1-yl)methyl)pyrido[3,2-d]pyrimidin-4-yl)amino)-[1,1'-biphenyl]-3-yl)carbamoyl)-4,5,6,7-tetrahydropyrazolo[1,5-a]pyridin-4-yl)amino)-2-methylpropanoic acid] showed a pIC50 of 7.00 to 8.00. For `CC(C)(N[C@@H]1CCCn2nc(C(=O)Nc3cccc(-c4cccc(Nc5nccc6nccnc56)c4Cl)c3Cl)cc21)C(=O)O` [Compound 259-1, (R)-2-((2-((2,2'-dichloro-3'-(pyrido[3,4-b]pyrazin-5-ylamino)-[1,1'-biphenyl]-3-yl)carbamoyl)-4,5,6,7-tetrahydropyrazolo[1,5-a]pyridin-4-yl)amino)-2-methylpropanoic acid], the pIC50 was 7.00 to 8.00. With `CC(C)(N[C@H]1CCCn2nc(C(=O)Nc3cccc(-c4cccc(Nc5nccc6nccnc56)c4Cl)c3Cl)cc21)C(=O)O` [Compound 260, (S)-2-((2-((2,2'-dichloro-3'-(pyrido[3,4-b]pyrazin-5-ylamino)-[1,1'-biphenyl]-3-yl)carbamoyl)-4,5,6,7-tetrahydropyrazolo[1,5-a]pyridin-4-yl)amino)-2-methylpropanoic acid] the pIC50 was 7.00 to 8.00. In the case of `O=C(Nc1cccc(-c2cccc(Nc3nc(C(F)F)nc4cc(CN5CC[C@@H](O)C5)cnc34)c2Cl)c1Cl)c1cc2n(n1)CCC[C@@H]2N1CC(C(=O)O)C1` [Compound 261, 1-((S)-2-((2,2'-dichloro-3'-((2-(difluoromethyl)-7-(((R)-3-hydroxypyrrolidin-1-yl)methyl)pyrido[3,2-d]pyrimidin-4-yl)amino)-[1,1'-biphenyl]-3-yl)carbamoyl)-4,5,6,7-tetrahydropyrazolo[1,5-a]pyridin-4-yl)azetidine-3-carboxylic acid], the pIC50 was greater than 8.00. In the case of `O=C(Nc1cccc(-c2cccc(Nc3nccc4nccnc34)c2Cl)c1Cl)c1cc2n(n1)CCC[C@H]2N1CC(C(=O)O)C1` [Compound 263, (R)-1-(2-((2,2'-dichloro-3'-(pyrido[3,4-b]pyrazin-5-ylamino)-[1,1'-biphenyl]-3-yl)carbamoyl)-4,5,6,7-tetrahydropyrazolo[1,5-a]pyridin-4-yl)azetidine-3-carboxylic acid], the pIC50 was greater than 8.00.
